molecular target: ATP-binding cassette sub-family C member 2 (Rattus norvegicus, UniProt Q63120); experiment: TP_TRANSPORTER: inhibition of DNP-SG uptake in bile canalicular membrane vesicles from SD rat; format: functional, cell membranes, Sprague-Dawley, Bile canalicular membrane vesicle
Sequence (Q63120 whole entry): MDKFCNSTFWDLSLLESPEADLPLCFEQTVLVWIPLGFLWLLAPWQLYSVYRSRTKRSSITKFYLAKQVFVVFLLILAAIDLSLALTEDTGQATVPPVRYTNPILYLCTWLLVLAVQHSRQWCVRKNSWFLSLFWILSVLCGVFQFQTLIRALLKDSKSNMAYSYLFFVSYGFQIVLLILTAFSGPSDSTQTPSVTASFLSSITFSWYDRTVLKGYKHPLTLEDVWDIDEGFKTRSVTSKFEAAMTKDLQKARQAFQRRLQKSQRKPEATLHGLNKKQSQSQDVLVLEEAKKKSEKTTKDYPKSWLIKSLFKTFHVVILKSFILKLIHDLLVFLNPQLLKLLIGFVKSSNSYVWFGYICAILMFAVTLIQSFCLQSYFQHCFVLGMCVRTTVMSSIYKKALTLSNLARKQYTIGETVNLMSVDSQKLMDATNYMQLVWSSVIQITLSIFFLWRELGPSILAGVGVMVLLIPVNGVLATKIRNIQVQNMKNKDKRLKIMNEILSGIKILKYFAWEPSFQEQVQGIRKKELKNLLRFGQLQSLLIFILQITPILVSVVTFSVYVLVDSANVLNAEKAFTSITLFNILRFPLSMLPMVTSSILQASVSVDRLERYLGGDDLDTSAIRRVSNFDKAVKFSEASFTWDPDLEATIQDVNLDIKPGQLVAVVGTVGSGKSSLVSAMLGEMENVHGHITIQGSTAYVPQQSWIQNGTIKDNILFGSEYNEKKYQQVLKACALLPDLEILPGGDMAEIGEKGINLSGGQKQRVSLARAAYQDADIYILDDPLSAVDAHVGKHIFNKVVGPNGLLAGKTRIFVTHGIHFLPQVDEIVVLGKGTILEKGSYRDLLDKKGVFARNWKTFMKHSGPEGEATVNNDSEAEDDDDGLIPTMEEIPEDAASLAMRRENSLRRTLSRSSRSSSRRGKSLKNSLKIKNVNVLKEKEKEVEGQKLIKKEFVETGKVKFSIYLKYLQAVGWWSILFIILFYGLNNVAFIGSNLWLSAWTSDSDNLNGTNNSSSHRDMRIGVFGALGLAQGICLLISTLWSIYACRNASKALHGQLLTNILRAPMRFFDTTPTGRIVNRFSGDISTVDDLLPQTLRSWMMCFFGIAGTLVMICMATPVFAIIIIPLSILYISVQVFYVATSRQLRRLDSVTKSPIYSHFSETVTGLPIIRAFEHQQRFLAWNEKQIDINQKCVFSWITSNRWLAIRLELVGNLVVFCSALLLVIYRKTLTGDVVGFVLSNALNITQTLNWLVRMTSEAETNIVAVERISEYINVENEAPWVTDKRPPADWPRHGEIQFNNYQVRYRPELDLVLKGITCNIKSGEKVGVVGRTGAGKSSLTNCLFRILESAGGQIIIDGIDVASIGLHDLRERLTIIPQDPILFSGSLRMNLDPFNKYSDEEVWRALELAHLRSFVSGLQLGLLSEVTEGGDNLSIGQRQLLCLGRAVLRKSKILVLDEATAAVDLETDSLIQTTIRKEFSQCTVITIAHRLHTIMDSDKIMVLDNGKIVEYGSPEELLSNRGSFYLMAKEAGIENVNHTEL

Ki [µM] | Structure (SMILES)
308 | CC(C)CC(NC(=O)c1ccc(N(C)Cc2cnc3nc(N)nc(N)c3n2)cc1)C(=O)O (stereo not given)
48.7 | CN(Cc1cnc2nc(N)nc(N)c2n1)c1ccc(C(=O)NC(CCCNC(=O)c2ccccc2)C(=O)O)cc1 (stereo not given)
98.3 | CCN(Cc1cnc2nc(N)nc(N)c2n1)c1ccc(C(=O)NC(CCC(=O)O)C(=O)O)cc1C (stereo not given)
14.8 | CC(C)N(Cc1cnc2nc(N)nc(N)c2n1)c1ccc(C(=O)NC(CCCNC(=O)c2ccccc2)C(=O)O)cc1 (stereo not given)
32.5 | CCN(Cc1cnc2nc(N)nc(N)c2n1)c1ccc(C(=O)NC(CCCNC(=O)c2ccccc2)C(=O)O)cc1 (stereo not given)
150 | Cc1cc(C(=O)NC(CCC(=O)O)C(=O)O)ccc1N(C)Cc1cnc2nc(N)nc(N)c2n1 (stereo not given)
39.2 | Cc1cc(C(=O)NC(CCC(=O)O)C(=O)O)cc(C)c1N(C)Cc1cnc2nc(N)nc(N)c2n1 (stereo not given)
56.9 | CCC(C)C(NC(=O)c1ccc(N(C)Cc2cnc3nc(N)nc(N)c3n2)cc1)C(=O)O (stereo not given)
136 | C=CCN(Cc1cnc2nc(N)nc(N)c2n1)c1ccc(C(=O)NC(CCC(=O)O)C(=O)O)cc1 (stereo not given)
154 | CCCN(Cc1cnc2nc(N)nc(N)c2n1)c1ccc(C(=O)NC(CCC(=O)O)C(=O)O)cc1 (stereo not given)
382 | Cc1cc(C(=O)NC(CCC(=O)O)C(=O)O)ccc1NCc1cnc2nc(N)nc(N)c2n1 (stereo not given)
11.4 | CCCN(Cc1cnc2nc(N)nc(N)c2n1)c1ccc(C(=O)NC(CCCNC(=O)c2ccccc2)C(=O)O)cc1 (stereo not given)
462 | CN(Cc1cnc2nc(N)nc(N)c2n1)c1ccc(C(=O)N[C@@H](CCC(=O)O)C(=O)O)cc1 [METHOTREXATE]
133 | Cc1cc(C(=O)NC(CCCC(=O)O)C(=O)O)ccc1N(C)Cc1cnc2nc(N)nc(N)c2n1 (stereo not given)
173 | CC(C)N(Cc1cnc2nc(N)nc(N)c2n1)c1ccc(C(=O)NC(CCC(=O)O)C(=O)O)cc1 (stereo not given) [ISOAMINOPTERIN]

The next lines start with the molecule.

Structure (SMILES) | Ki [µM]
Nc1nc(N)c2nc(CN3CCSc4cc(C(=O)NC(CCC(=O)O)C(=O)O)ccc43)cnc2n1 (stereo not given) | 137
CN(Cc1cnc2nc(N)nc(N)c2n1)c1ccc(C(=O)NC(CCC(=O)NC(CCC(=O)NC(CCC(=O)NC(CCC(=O)N[C@@H](CCC(=O)O)C(=O)O)C(=O)O)C(=O)O)C(=O)O)C(=O)O)cc1 (stereo not given in full) | 501
CN(Cc1cnc2nc(N)nc(N)c2n1)c1ccc(C(=O)NC(CCC(=O)NC(CCC(=O)N[C@@H](CCC(=O)O)C(=O)O)C(=O)O)C(=O)O)cc1 (stereo not given in full) | 838
Nc1nc(N)c2nc(CN3CCOc4cc(C(=O)NC(CCC(=O)O)C(=O)O)ccc43)cnc2n1 (stereo not given) | 311
CN(Cc1cnc2nc(N)nc(N)c2n1)c1ccc(C(=O)N2C[C@H](O)C[C@H]2C(=O)O)cc1 | > 1000
Nc1nc(N)c2nc(CN3CCSc4cc(C(=O)N[C@@H](CCCC(=O)N[C@@H](CCC(=O)O)C(=O)O)C(=O)O)ccc43)cnc2n1 | 223
Nc1nc(N)c2nc(CN3CCOc4cc(C(=O)NC(CCCC(=O)O)C(=O)O)ccc43)cnc2n1 (stereo not given) | 204
Nc1nc(N)c2nc(CN3CCSc4cc(C(=O)NC(CCCC(=O)O)C(=O)O)ccc43)cnc2n1 (stereo not given) | 159
CC(C)N(Cc1cnc2nc(N)nc(N)c2n1)c1ccc(C(=O)N2C[C@H](O)C[C@H]2C(=O)O)cc1 | 784
Cc1cc(C(=O)NC(CCC(=O)O)C(=O)O)cc2c1N(Cc1cnc3nc(N)nc(N)c3n1)CC2 (stereo not given) | 173
